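Test compounds were applied to cells in 96-well plates for 48 hours at 5 doses. GI50: concentration for 50% inhibition of growth.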 The source made the active and inactive calls. Cut-off read from the data, not from the text of the source: active = GI50 up to about 1.1 µM and inactive = higher.
Experiments:
Assay in all cases: growth of human tumour cells (NCI), 48 h
[1] = test system: UACC-62
[2] = test system: HCT-15
[3] = test system: HOP-92
[4] = test system: RPMI-8226
[5] = test system: CAKI-1
[6] = test system: LOX IMVI
[7] = test system: BT-549
[8] = test system: MDA-MB-435
[9] = test system: NCI/ADR-RES
[10] = test system: HOP-62
[11] = test system: MCF7
[12] = test system: DU-145
[13] = test system: RXF 393
[14] = test system: A549
[15] = test system: NCI-H522
[16] = test system: SF-539
[17] = test system: UO-31
[18] = test system: OVCAR-8
[19] = test system: SF-295
[20] = test system: SR

Measured: GI50

O=C(NNC(=O)c1ccccc1SSc1ccccc1C(=O)NNC(=O)c1ccccc1S)c1ccccc1S
active: [15] 0.49 µM
inactive: [1] 17.5 µM | [3] 39.2 µM | [4] 43.1 µM | [5] 12.9 µM | [6] 11.9 µM | [7] 13.5 µM | [8] 16.1 µM | [9] 20 µM | [10] 25.9 µM | [11] 15.2 µM | [12] 6.55 µM | [13] 64.9 µM | [14] 13.4 µM | [16] 13.8 µM | [17] 9.95 µM | [18] 16.3 µM | [19] 10.6 µM | [20] 5.35 µM
9.16 µM: [2]

CC1=CC[C@H](C(C)C)C(C(O)[C@@H](C)O[Si](c2ccccc2)(c2ccccc2)C(C)(C)C)C1=O (stereo not given in full)
inactive: [1] 14.8 µM | [3] 20.8 µM | [4] 9.73 µM | [5] 14 µM | [6] 21.8 µM | [7] 18.9 µM | [8] 21.4 µM | [9] 16.7 µM | [10] 20.9 µM | [11] 15.8 µM | [12] 21.4 µM | [13] 13.5 µM | [14] 14.7 µM | [15] 16.5 µM | [16] 20.1 µM | [17] 15.2 µM | [18] 22.8 µM | [19] 15 µM | [20] 14.5 µM
13.9 µM: [2]

CC(=O)NNC1=NN(C(C)=O)C2(S1)C(=O)Nc1ccc(Br)cc12 (stereo not given)
> 100 µM: [2]
inactive: [1] 79.1 µM | [3] 65.5 µM | [4] > 100 µM | [5] > 100 µM | [6] > 100 µM | [7] 59.6 µM | [8] > 100 µM | [9] > 100 µM | [10] > 100 µM | [11] > 100 µM | [12] > 100 µM | [13] > 100 µM | [14] > 100 µM | [15] > 100 µM | [16] > 100 µM | [17] 39.4 µM | [18] > 100 µM | [19] > 100 µM | [20] > 100 µM

CC(=O)O[C@H]1C[C@H]2[C@@H](OC(C)=O)/C=C3\C[C@](C)(C(=O)[C@H](O)C(=C1C)C2(C)C)[C@@H](O)C[C@@H]3OC(=O)[C@H](O)[C@H](c1ccccc1)N(C)C
> 100 µM: [2]
inactive: [1] > 100 µM | [3] > 100 µM | [4] > 100 µM | [5] > 100 µM | [6] > 100 µM | [7] > 100 µM | [8] > 100 µM | [9] > 100 µM | [10] > 100 µM | [11] > 100 µM | [12] > 100 µM | [13] > 100 µM | [14] > 100 µM | [15] > 100 µM | [16] > 100 µM | [17] > 100 µM | [18] > 100 µM | [19] > 100 µM | [20] > 100 µM

CC(C)(C)c1cc(OCc2nnc3sc(Cc4ccccc4)nn23)c(Cl)cc1OCc1nnc2sc(Cc3ccccc3)nn12
33.4 µM: [2]
inactive: [1] 19.5 µM | [3] 15.8 µM | [4] 20.7 µM | [5] 34.3 µM | [6] 29.1 µM | [7] 21.5 µM | [8] 24.1 µM | [9] 76 µM | [10] 46.6 µM | [11] 17.7 µM | [12] 33 µM | [13] 18.1 µM | [14] 28.8 µM | [15] 37.2 µM | [16] 30.8 µM | [17] 47.5 µM | [18] 17.1 µM | [19] 23.3 µM | [20] 3.52 µM

c1ccc(C(=NNc2nc3ccccc3o2)c2ccccn2)nc1
active: [1] 0.0993 µM | [3] < 0.01 µM | [4] 0.0327 µM | [5] 0.0723 µM | [6] 0.122 µM | [7] 0.0908 µM | [8] 0.232 µM | [9] 0.0245 µM | [10] 0.0408 µM | [11] < 0.0161 µM | [12] 0.188 µM | [13] 0.158 µM | [14] 0.151 µM | [15] 0.0776 µM | [16] 0.0931 µM | [17] 0.0685 µM | [18] 0.0301 µM | [19] 0.121 µM | [20] 0.0388 µM
0.0299 µM: [2]

COc1cc(C2c3cc4c(cc3OC(N3CCNCC3)C2C)OCO4)cc(OC)c1OC (stereo not given)
0.893 µM: [2]
inactive: [10] 1.13 µM | [14] 1.79 µM | [17] 1.69 µM | [18] 2.93 µM
active: [1] 0.516 µM | [3] 0.748 µM | [4] 0.804 µM | [5] 0.476 µM | [6] 0.871 µM | [7] 0.579 µM | [8] 0.269 µM | [9] 0.597 µM | [11] 0.385 µM | [12] 0.594 µM | [13] 0.3 µM | [15] 0.861 µM | [16] 0.344 µM | [19] 0.234 µM | [20] 0.441 µM

COc1cc(NC=C2C(=O)OC(C)(C)OC2=O)c(OC)c(C)c1OC
> 100 µM: [2]
inactive: [1] > 100 µM | [3] > 100 µM | [4] > 100 µM | [5] > 83.4 µM | [6] > 100 µM | [7] > 100 µM | [8] > 100 µM | [9] > 100 µM | [10] > 100 µM | [11] > 100 µM | [12] > 100 µM | [13] > 100 µM | [14] > 100 µM | [15] > 100 µM | [16] > 100 µM | [17] > 100 µM | [18] > 100 µM | [19] > 100 µM | [20] > 100 µM

O=c1[nH]c2cc(C(F)(F)F)ccc2nc1CBr
active: [15] 0.36 µM
11.4 µM: [2]
inactive: [1] 9.51 µM | [3] 2.79 µM | [4] 5.97 µM | [5] 6.25 µM | [6] 1.82 µM | [7] 13.1 µM | [8] 11.4 µM | [9] 17.4 µM | [10] 8.05 µM | [11] 4.97 µM | [12] 14.3 µM | [13] 12.4 µM | [14] 11 µM | [16] 8.41 µM | [17] 3.4 µM | [18] 10.4 µM | [19] 14.9 µM | [20] 4.85 µM

Cc1ccc(/C=C/C(=O)c2c([O-])on[n+]2-c2ccccc2)cc1
1.98 µM: [2]
inactive: [1] 1.72 µM | [3] 4.52 µM | [4] 2.57 µM | [5] 1.98 µM | [6] 1.88 µM | [7] 2.72 µM | [8] 2.3 µM | [9] 2.4 µM | [10] 5.28 µM | [11] 3.53 µM | [12] 2.74 µM | [13] 1.94 µM | [14] 3.67 µM | [15] 2.61 µM | [16] 3.28 µM | [17] 2.62 µM | [18] 1.85 µM | [19] 7.74 µM | [20] 2.9 µM

— ChEMBL document CHEMBL1201862, “PubChem BioAssay data set” (2004)
